The target of one assay is T1, mutant huntingtin (GST fusion protein GST-HDQ51) (Homo sapiens, UniProt P42858, INS38QQQQQQQQQQQQQQQQQQQQQQQQQQQQQQ).
T1 construct: GST (N)
T1 sequence (P42858 with tags, fused parts or gaps with the stated changes limits assumed): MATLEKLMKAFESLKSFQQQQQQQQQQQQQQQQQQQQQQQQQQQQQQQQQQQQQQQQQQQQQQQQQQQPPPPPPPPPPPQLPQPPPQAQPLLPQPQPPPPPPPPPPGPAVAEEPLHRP
In words: in vitro aggregation of mutant huntingtin, membrane filter test. The settings on record: membrane filter method. It counts as biochemical. Here is the method: As in the tests described by Heiser et al. (2002), the protein was used for aggregation tests to which either only solvent or solvent and the chemical agent in question was added. Aliquots of these batches were examined by means of the membrane filter test and electron microscopy.
As in the tests described by Heiser et al. (2002), the protein was used for aggregation tests to which either only solvent or solvent and 7-amino-8-(2,4-dihydroxy-6-methyl-phenyl)-1,9-dimethyl-phenoxazine-3-one was added. Aliquots of these batches were examined by means of the membrane filter test (FIG. 1B) and electron microscopy (FIGS. 1E and 1F).
Turning to `CN1C(CO)=Nc2cccc3cccc1c23` [(1-methyl-1H-perimidine-2-yl)-methanol], the “Inhibition of the aggregation of huntingtin (Exon-1) (SDS-insoluble aggregates)” value is given as “Inhibition of the aggregation”.

The target in a further assay is T2, wild type Aβ1-42 (Homo sapiens, UniProt P05067).
T2 construct: non-mutated (wild type) Aβ1-42
T2 sequence (P05067 672-713 limits assumed): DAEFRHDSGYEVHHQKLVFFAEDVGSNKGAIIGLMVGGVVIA
In words: aggregation assay with wild type Aβ1-42, membrane filter method. It counts as biochemical. As to conditions: peptide 15 μM, pH 7.4, 42 h, 37° C. Here is the method: Analogously, the compounds were also examined in aggregation assays with the amyloid β-peptide Aβ1-42(E22Q), which is a particularly rapidly aggregating variant of amyloid β, as well as with non-mutated (wild type) Aβ1-42. For this purpose, the peptide was incubated at a concentration of 15 μM in a phosphate buffer with a physiological pH value of 7.4 for 42 h at 37° C. and subsequently, aliquots were examined by means of the membrane filter method (Figure) or electron microscopy (Figures) as well. […] Cell viability measurements were carried out in neuronally differentiated PC12 cells to which beta-amyloid and the substances to be tested were added extracellularly in order to examine whether the compounds are able to reduce toxicity caused by amyloid-beta. After 48 h the viability of the cells (approximately corresponds to the number of vital cells) was measured.
For `CC1=Nc2cccc3cccc(c23)N1C` [1,2-dimethyl-1H-perimidine], the “Inhibition of the aggregation of wild type Aβ1-42 (SDS-insoluble aggregates)” value is “Inhibition of the aggregation”. The same measure, in the same setting: with `Cc1cc(=O)cc2oc3cccc(C)c3nc1-2` [1,9-dimethyl-phenoxazine-3-one] the entry was “Inhibition of the aggregation”; with `S=C1Nc2cccc3cccc(c23)N1` [1H,3H-perimidine-2-thione], “Inhibition of the aggregation”; with `c1cc2c3c(cccc3c1)NC(c1c[nH]cn1)=N2` [2-(1H-imidazole-4-yl)-1H-perimidine, 2-(1H-Imidazole-4-yl)-1H-perimidine], “Inhibition of the aggregation”. Still for that read-out and setting: then `COC(=O)C1CC2=C(Cc3ccccc32)CN1c1ccco1` (stereo not shown) [2-Furan-2-yl-2,3,4,9-tetrahydro-1H-indenol[2,3-c]pyridine-3-carboxylic acid methyl ester], with “Inhibition of the aggregation”. Same read-out and setting: with `Cc1ccc(C2=Nc3cccc4cccc(c34)N2)cc1` [2-p-tolyl-1H-perimidine] the entry was “Inhibition of the aggregation”; with `c1cncc(C2=Nc3cccc4cccc(c34)N2)c1` [2-pyridine-3-yl-1H-perimidine], “Inhibition of the aggregation”. Turning to `N#Cc1ccc(C2=Nc3cccc4cccc(c34)N2)cc1` [4-(1H-perimidine-2-yl)-benzonitrile], the “Inhibition of the aggregation of wild type Aβ1-42 (SDS-insoluble aggregates)” value is “Inhibition of the aggregation”. As to `Cc1cc(=O)cc2oc3cc(O)cc(C)c3nc1-2` [7-hydroxy-1,9-dimethyl-phenoxazine-3-one], the “Inhibition of the aggregation of wild type Aβ1-42 (SDS-insoluble aggregates)” value is given as “Inhibition of the aggregation”. Regarding `Cc1cc(O)cc(O)c1-c1c(O)cc2oc3cc(=O)c(-c4c(C)cc(O)cc4O)c(C)c-3nc2c1C` [beta-hydroxy-orcein], the “Inhibition of the aggregation of wild type Aβ1-42 (SDS-insoluble aggregates)” value is “Inhibition of the aggregation”.

For the next assay, the target named is T3, huntingtin (Homo sapiens, UniProt P42858, INS38QQQQQQQQQQQQQQQQQQQQQQQQQQQQQQ).
T3 construct: expressed in transfected cells; host or cells: COS1 cells, transient transfection
T3 sequence (P42858 with tags, fused parts or gaps with the stated changes limits assumed): as the sequence (P42858 with tags, fused parts or gaps with the stated changes limits assumed) above
In words: cell culture model of Huntington's chorea: COS1 cells transfected with pTL1-CAG51, membrane filter test. The class given is cell-based. As to conditions: 40-44 h, membrane filter method. Here is the method: The compounds were then tested in several cell culture models of polyglutamine diseases, inter alia Huntington's chorea. For this purpose, COS1 cells were transiently transfected with the plasmid pTL1-CAG51 already described above (Sittler, A., Walter, S., Wedemeyer, N., Hasenbank, R., Scherzinger, E., Eickhoff, H., Bates, G. P., Lehrach, H. and Wanker, E. E. (1998) Mol Cell 2, 427-36) and cultivated for 44 h in the presence of solvents or the chemical agents. Subsequently, the amount of aggregate was determined with the help of the membrane filter test as described by Heiser et al. (2002). […] The latter could be deduced from the total amount of protein in the cell lysate (FIG. 2B) which was determined with the help of cell extracts.
7-Amino-8-(2,4-dihydroxy-6-methyl-phenyl)-1,9-dimethyl-phenoxazine-3-one was then tested in a cell culture model of Huntington's chorea. For this purpose, COS1 cells were transiently transfected with the plasmid pTL1-CAG51 already described above (Sittler, A., Walter, S., Wedemeyer, N., Hasenbank, R., Scherzinger, E., Eickhoff, H., Bates, G. P., Lehrach, H. and Wanker, E. E. (1998) Mol Cell 2, 427-36) and cultivated for 40-44 h in the presence of solvents or 7-amino-8-(2,4-dihydroxy-6-methyl-phenyl)-1,9-dimethyl-phenoxazine-3-one. Subsequently, the amount of aggregate was determined with the help of the membrane filter test as described by Heiser et al. (2002). […] The latter could be deduced from the total amount of protein (FIG. 2B) which was determined with the help of cell extracts.
`C1=CC2=Nc3ccccc3OC2=CC1` [3H-phenoxazine, 3H-Phenoxazine]: the “Inhibition of the aggregation of huntingtin in mammalian cells” value was “Inhibition of the aggregation”.

Take `CCOC(=O)C(CC(C)C)c1nc(-c2ccccc2)ns1` (stereo not shown) [4-methyl-2-(3-phenyl-[1,2,4]thiadiazole-5-yl)-pentanoic acid ethyl ester]: the “Inhibition of the aggregation of huntingtin in mammalian cells” value was “Inhibition of the aggregation”.

Take `O=C(Nc1nccs1)c1ccc(-c2ccc(C(=O)Nc3nccs3)o2)cc1` [5-[4-(Thiazole-2-ylcarbamoyl)-phenyl]-furan-2-carboxylic acid thiazole-2-ylamide]: the “Inhibition of the aggregation of huntingtin in mammalian cells” value is on record as “Inhibition of the aggregation”.

Take `Cc1cc(=O)cc2oc3cc(N)cc(C)c3nc1-2` [7-amino-1,9-dimethyl-phenoxazine-3-one]: the “Inhibition of the aggregation of huntingtin in mammalian cells” value is “Inhibition of the aggregation”. Regarding `Cc1cc(O)cc(O)c1-c1c(N)cc2oc3cc(=O)c(-c4c(C)cc(O)cc4O)c(C)c-3nc2c1C` [beta-amino-orcein], the “Inhibition of the aggregation of huntingtin in mammalian cells” value is “Inhibition of the aggregation”. Still for that read-out and setting: then `O=c1ccc2nc3ccccc3oc-2c1` [phenoxazin-3-one], with “Inhibition of the aggregation”; and alpha-hydroxy-orcein, with “Inhibition of the aggregation”.

The target in another assay is amyloid-beta fibrils (Homo sapiens, UniProt P05067). The assay is described as follows: binding to amyloid-beta aggregates located on a cellulose acetate membrane. The settings on record: colored substances. An excerpt: FIG. 16: Binding to amyloid-beta aggregates located on a cellulose acetate membrane
Chain of amyloid-beta fibrils (P05067 672-713 limits assumed): as the sequence (P05067 672-713 limits assumed) above
For the compound `Cc1cc(O)cc(O)c1-c1c(N)cc2oc3cc(=N)c(-c4c(C)cc(O)cc4O)c(C)c-3nc2c1C` [beta-amino-orceimine], the “direct binding to amyloid-beta fibrils” value was “bind directly to amyloid-beta fibrils”.

Consider `Cc1cc(O)cc(O)c1-c1c(N)cc2oc3cc(=O)c(-c4c(C)cc(O)cc4O)c(C)c-3nc2c1C` [beta-amino-orcein], for which the “direct binding to amyloid-beta fibrils” value is listed as “bind directly to amyloid-beta fibrils”. On the same count and under the same terms, then `Cc1cc(O)cc(O)c1-c1c(O)cc2oc3cc(=O)c(-c4c(C)cc(O)cc4O)c(C)c-3nc2c1C` [beta-hydroxy-orcein], with “bind directly to amyloid-beta fibrils”.

For the compound `c1ccc2c(c1)Nc1ccccc1O2` [phenoxazine], the “direct binding to amyloid-beta fibrils” value is given as “bind directly to amyloid-beta fibrils”. With `O=c1ccc2nc3ccccc3oc-2c1` [phenoxazone], the “direct binding to amyloid-beta fibrils” value is on record as “bind directly to amyloid-beta fibrils”. Turning to alpha-amino-orceimine, the “direct binding to amyloid-beta fibrils” value is “bind directly to amyloid-beta fibrils”. Still for that read-out and setting: with alpha-hydroxy-orcein the entry was “bind directly to amyloid-beta fibrils”; with gamma-amino-orcein, “bind directly to amyloid-beta fibrils”.

For a further assay, the system named is huntingtin-Exon-1 with 103 glutamines (Htt103Q-EGFP). The assay is described as follows: stably transfected PC12 cell line with inducible Htt103Q-EGFP, membrane filter test. It counts as cell-based. As to conditions: muristerone induced, 44 h, membrane filter method. On the procedure: The compounds were additionally tested in a stably transfected PC12 cell line. This cell line was transfected with an ecdysone-inducible plasmid whose N-terminal codes for huntingtin-Exon-1 marked with GFP with 103 glutamines (Htt103Q-EGFP). The Htt103Q-EGFP expression was induced with muristerone and the cells were subsequently cultivated for 44 h in the presence of solvents or the chemical agents. Subsequently, the amount of aggregate was determined with the help of the membrane filter test as described by Heiser et al. (2002). Furthermore, the amount of aggregate was determined with the help of a fluorescence measurement (data not shown). […] The latter could be deduced from the total amount of protein in the cell lysate (FIG. 2B) which was determined with the help of cell extracts.
Turning to `CN(C)CCCNc1nc2c(ccc3[nH]c(=O)c(C#N)cc32)s1` [2-(3-dimethylamino-propylamino)-7-oxo-6,7-dihydro-thiazolo[4,5-f]quinoline-8-carbonitrile], the “Inhibition of the aggregation of huntingtin (Exon-1) in mammalian cells” value (“Inhibition … (Exon-1) in mammalian cells” below) is “Inhibition of the aggregation”. On to `N#Cc1cc2c(ccc3sc(N)nc32)[nH]c1=O` [2-Amino-7-oxo-6,7-dihydro-thiazolo[4,5-f]quinoline-8-carbonitrile], for which the “Inhibition … (Exon-1) in mammalian cells” value is listed as “Inhibition of the aggregation”.

Consider `CCN(CC)CCN(CC)c1nc2c(ccc3[nH]c(=O)c(C#N)cc32)s1` [2-[(2-diethylamino-ethyl)-ethyl-amino]-7-oxo-6,7-dihydro-thiazolo[4,5-f]quinoline-8-carbonitrile], for which the “Inhibition … (Exon-1) in mammalian cells” value is on record as “Inhibition of the aggregation”.

As to `CN(C)CCN(Cc1ccccc1)c1nc2c(ccc3[nH]c(=O)c(C#N)cc32)s1` [2-[Benzyl-(2-dimethylamino-ethyl)-amino]7-oxo-6,7-dihydro-thiazolo[4,5-f]quinoline-8-carbonitrile], the “Inhibition … (Exon-1) in mammalian cells” value is listed as “Inhibition of the aggregation”. Take `N#Cc1cc2c(ccc3sc(NCCN4CCCCC4)nc32)[nH]c1=O` [7-Oxo-2-(2-piperidine-1-yl-ethylamino)-6,7-dihydrothiazolo[4,5-f]quinoline-8-carbonitrile]: the “Inhibition … (Exon-1) in mammalian cells” value is given as “Inhibition of the aggregation”.

As to `CC(=O)N(CCN(C)C)c1nc2c(ccc3[nH]c(=O)c(C#N)cc32)s1` [N-(8-Cyano-7-oxo-6,7-dihydro-thiazolo[4,5-f]quinoline-2-yl)-N-(2-dimethylamino-ethyl)-acetamide], the “Inhibition … (Exon-1) in mammalian cells” value was “Inhibition of the aggregation”. For `CN(C)CCN(C=O)c1nc2c(ccc3[nH]c(=O)c(C#N)cc32)s1` [N-(8-Cyano-7-oxo-6,7-dihydro-thiazolo[4,5-f]quinoline-2-yl)-N-(2-dimethylamino-ethyl-formamide], the “Inhibition … (Exon-1) in mammalian cells” value is “Inhibition of the aggregation”.

Consider `CN(C)CCCN(C=O)c1nc2c(ccc3[nH]c(=O)c(C#N)cc32)s1` [N-(8-Cyano-7-oxo-6,7-dihydro-thiazolo[4,5-f]quinoline-2-yl)-N-(3-dimethylamino-propyl)-formamide], for which the “Inhibition … (Exon-1) in mammalian cells” value is listed as “Inhibition of the aggregation”.
